{"source": "patent US9901558B2", "about": "“Enhancer of survival of transplanted organ” (SBI Pharmaceuticals Co., Ltd., priority 2011, dated 2018)", "test_system": "heterotopic heart-transplanted model mice", "test": "Heterotopic homologous heart transplantation in mice (B10 donors to CBA recipients), heart graft beating/survival", "assay_type": "in vivo", "settings": "group (b), n = 5: both donor and recipient mice received ALA (100 mg/kg) alone", "from_the_text": "B10 mice (male, 10 weeks old on average, body weight: 20 to 25 g) were used as donors for the hearts to be transplanted. CBA mice (male, 10 weeks old on average, body weight: 20 to 25 g) were used as recipients to receive the hearts taken out of the donors. The procedures of the heterotopic homologous heart transplantation in mice followed the description of Experimental Manual of Organ Transplantation (Shujunsha Co., Ltd.), Paragraph 1, Part 2, 2-1-5 “Heterotopic Heart Transplantation in Mice”. Hereinafter, the procedures will be summarized.\nThe thorax of each donor mouse was opened under anesthesia and sufficiently perfused using 1 mL of saline supplemented with cold heparin, followed by excision of the heart. The excised heart was preserved in saline supplemented with cold heparin. The abdomen of each recipient mouse was opened under anesthesia, and the heart excised from the donor mouse was transplanted into the abdominal vena cava to prepare heterotopic heart-transplanted model mice.\nThe heterotopic heart-transplanted model mice were divided into groups (1) to (4) with administration patterns shown in Table 1 below. An experiment was conducted on the oral administration of the agent for promoting graft survival of the present invention. […]", "data": [{"molecule": "NCC(=O)CCC(=O)O", "note": "[ALA, 5-aminolevulinic acid]", "values": [{"measurement": "long-term beating of heart graft", "result": "seen in none of these individuals"}]}]}
